The source of these data is article PMC12567398, “New Assay Systems to Characterize the Broad-Spectrum Antiherpesviral and Non-Herpesviral Activity of Cyclin-Dependent Kinase (CDK) 8 Inhibitors” (Pharmaceuticals, 2025).

Molecules are shown by their SMILES. Read-outs that look alike come from different tables or passages of the source.

Data set [1] concerns Epstein–Barr virus P3HR-1. Kind of data set: EBV lytic assay in TPA-induced P3HR-1 cells, qPCR. It counts as cell-based. In general terms: Quantitative PCR measures a nucleic acid by following its amplification.
Data set [2] can be described thus: Neutral Red uptake cell viability assay, P3HR-1. The conditions noted are these: human.
A further data set relates to EHV-1-GFP. Kind of data set: EHV-1-GFP antiviral assay, GFP fluorometry. The class given is cell-based, equine herpesvirus 1.
The next data set has as its system EHV-1. Briefly: EHV-1-specific qPCR of virus release into culture medium. It counts as cell-based, equine herpesvirus 1. The conditions noted are these: EHV-1; qPCR / HFF; read-out: EC50.
A further data set deals with MHV-68-Luc. Briefly: MHV-68-Luc luciferase reporter assay. The class given is cell-based, murine herpesvirus 68. (In a reporter assay the amount or activity of a reporter protein is the signal.)
Another data set concerns vaccinia virus VV IHD-5. Kind of data set: microbe, parasite or virus in culture. The conditions noted are these: read-out: antiviral EC50, VV. It counts as cell-based.
The subject of the next data set is HCMV. Also noted: method as in ref 35, 38 (a number printed in a supplementary file, which may have a reference list of its own: not looked up in the article's list). Particulars: Table S1; read-out: antiviral EC50, HCMV; cited from earlier work.
In the next data set the test system is RhCMV. Also noted: method as in ref 35, 38 (a number printed in a supplementary file, which may have a reference list of its own: not looked up in the article's list). The conditions noted are these: Table S1; read-out: antiviral EC50, RhCMV; cited from earlier work.
A further data set has as its system ChCMV. The arrangement: method as in ref 35, 38 (a number printed in a supplementary file, which may have a reference list of its own: not looked up in the article's list). The conditions noted are these: Table S1; read-out: antiviral EC50, ChCMV; cited from earlier work.
In a further data set the test system is MCMV. Also noted: method as in ref 35, 38 (a number printed in a supplementary file, which may have a reference list of its own: not looked up in the article's list). Particulars: Table S1; read-out: antiviral EC50, MCMV; cited from earlier work.
The subject of another data set is RCMV. Also noted: method as in ref 35, 38 (a number printed in a supplementary file, which may have a reference list of its own: not looked up in the article's list). Particulars: Table S1; read-out: antiviral EC50, RCMV; cited from earlier work.
Another data set deals with GPCMV. The arrangement: method as in ref 35, 38 (a number printed in a supplementary file, which may have a reference list of its own: not looked up in the article's list). Particulars: Table S1; read-out: antiviral EC50, GPCMV; cited from earlier work.
The test system of the next data set is HHV-6A. The arrangement: method as in ref 35 (a number printed in a supplementary file, which may have a reference list of its own: not looked up in the article's list). Particulars: Table S1; J-Jhan cells; read-out: antiviral EC50, HHV-6A (J-Jhan); cited from earlier work.
The test system of another data set is HSV-1. The arrangement: method as in ref 35, 38 (a number printed in a supplementary file, which may have a reference list of its own: not looked up in the article's list). Particulars: Table S1; read-out: antiviral EC50, HSV-1; cited from earlier work.
Another data set has as its system VZV. The arrangement: method as in ref 35, 38 (a number printed in a supplementary file, which may have a reference list of its own: not looked up in the article's list). The conditions noted are these: Table S1; read-out: antiviral EC50, VZV; cited from earlier work.
The next data set relates to KSHV. The arrangement: method as in ref 35, 38 (a number printed in a supplementary file, which may have a reference list of its own: not looked up in the article's list). The conditions noted are these: Table S1; read-out: antiviral EC50, KSHV; cited from earlier work.
In a further data set the test system is HAdV. Also noted: method as in ref 35, 38 (a number printed in a supplementary file, which may have a reference list of its own: not looked up in the article's list). The conditions noted are these: Table S1; read-out: antiviral EC50, HAdV; cited from earlier work.
Another data set relates to JCPyV. The arrangement: method as in ref 35, 38 (a number printed in a supplementary file, which may have a reference list of its own: not looked up in the article's list). Particulars: Table S1; read-out: antiviral EC50, JCPyV; cited from earlier work.
The subject of the next data set is HHV-6A-GFP. Kind of data set: HHV-6A plaque reduction assay in HFFs.
For a further data set, the system named is HCMV TB40-YFP. Kind of data set: HCMV time-of-addition reporter assay in HFFs, TB40-YFP.
Another data set deals with HCMV AD169-GFP. Kind of data set: HCMV time-of-addition reporter assay in HFFs, AD169-GFP.
The test system of a further data set is HCMV Merlin-GFP. Briefly: HCMV time-of-addition reporter assay in HFFs, Merlin-GFP.
Data set [3] is described as follows: in vitro. Particulars: African green monkey.
Data set [4] can be described thus: in vitro. The conditions noted are these: African green monkey. The source holds these as a separate data set.
The nature of data set [5]: in vitro. The conditions noted are these: human.
The nature of data set [6]: in vitro. Particulars: mouse.

For the compound `CC(C)OC(=O)[C@H](C)N[P@](=O)(CO[C@H](C)Cn1cnc2c(N)ncnc21)Oc1ccccc1` [TAF, tenofovir alafenamide], in data set [1] (human gammaherpesvirus 4, P3HR-1, 240 h, read-out: Antiviral mean EC50 based on qPCR measurements), the EC50 worked out at 1800 nM. In addition, the CC50 at 10 d in data set [2] is greater than 100000 nM.

For `Cn1ncc2cc(-c3cnc(N)c(Cl)c3N3CCC4(CCNC4=O)CC3)ccc21` [CCT-251921], the concentration giving a half-maximal response (EC50) in the data set on EHV-1-GFP (EHV-1, GFP / COS-7, read-out: EC50) was determined as 100 nM; in the data set on EHV-1 it was 800 nM; in [1] (Table S1, read-out: antiviral EC50, EBV), 2500 ± 1000 nM; at MHV-68-Luc (Table S1, COS-7, read-out: antiviral EC50, MHV-68 (COS-7)), 0.5 ± 0.9 nM; at MHV-68-Luc (Table S1, HFF, read-out: antiviral EC50, MHV-68 (HFF)), 500 ± 300 nM; at MHV-68-Luc (Table S1, MEF, read-out: antiviral EC50, MHV-68 (MEF)), 10 ± 9 nM. Moreover, the EC50 at MHV-68-Luc (Table S1, Vero, read-out: antiviral EC50, MHV-68 (Vero)) is 2 ± 1 nM; with vaccinia virus VV IHD-5, greater than 50000 nM; in the data set on SARS-CoV-2 d6-YFP (read-out: Antiviral mean EC50 based on YFP measurements, SARS-CoV-2 d6-YFP, Caco-2, […]) it was no less than 15400 nM; in the data set on SARS-CoV-2 d6-YFP (read-out: antiviral EC50, SARS-CoV-2, Table S1), 62400 ± 18500 nM; with HCMV, 4 ± 2 nM; with RhCMV it was 3 ± 2 nM. The EC50 in the data set with ChCMV is 30 ± 20 nM; with MCMV it was greater than 40 nM; in the data set on RCMV, 20 ± 50 nM; in the data set on GPCMV, 50 ± 80 nM; in the data set on HHV-6A, 39000 ± 21000 nM; in the data set on HSV-1 it was greater than 50000 nM. Also, the EC50 in the data set with VZV was 28000 ± 9000 nM; with KSHV, 300 nM; in the data set on HAdV it was 30 ± 30 nM; in the data set on JCPyV, 3700 ± 3000 nM; in the data set with HHV-6A-GFP (read-out: antiviral EC50, HHV-6A (HFF), Table S1, HFF), 40 ± 20 nM; in the data set with HCMV TB40-YFP (read-out: TB40-YFP EC50, drug addition 0 d p.i., readout 7 d p.i.) it was 8.7 ± 5 nM. Besides, the concentration giving a half-maximal response (EC50) was 26 ± 4 nM in the data set with HCMV TB40-YFP (read-out: TB40-YFP EC50, drug addition 1 d p.i., readout 7 d p.i.); greater than 50 nM with HCMV TB40-YFP (read-out: TB40-YFP EC50, drug addition 2 d p.i., readout 7 d p.i.); greater than 50 nM in the data set with HCMV TB40-YFP (read-out: TB40-YFP EC50, drug addition 3 d p.i., readout 7 d p.i.); greater than 50 nM in the data set on HCMV TB40-YFP (read-out: TB40-YFP EC50, drug addition 4 d p.i., readout 7 d p.i.); 0.7 ± 0.7 nM in the data set with HCMV AD169-GFP (read-out: AD169-GFP EC50, drug addition 0 d p.i., readout 7 d p.i.); 3.2 ± 2.6 nM in the data set on HCMV AD169-GFP (read-out: AD169-GFP EC50, drug addition 1 d p.i., readout 7 d p.i.). Also, the concentration for a half-maximal effect (EC50) with HCMV AD169-GFP (read-out: AD169-GFP EC50, drug addition 2 d p.i., readout 7 d p.i.) is 8.3 ± 7.9 nM; with HCMV AD169-GFP (read-out: AD169-GFP EC50, drug addition 3 d p.i., readout 7 d p.i.) it was greater than 50 nM; in the data set on HCMV AD169-GFP (read-out: AD169-GFP EC50, drug addition 4 d p.i., readout 7 d p.i.), greater than 50 nM; in the data set on HCMV Merlin-GFP (read-out: Merlin-GFP EC50, drug addition 0 d p.i., readout 7 d p.i.) it was 0.7 ± 1.3 nM; with HCMV Merlin-GFP (read-out: Merlin-GFP EC50, drug addition 1 d p.i., readout 7 d p.i.), 13 ± 8 nM; with HCMV Merlin-GFP (read-out: Merlin-GFP EC50, drug addition 2 d p.i., readout 7 d p.i.), 3.4 ± 6.8 nM. For the same compound, the concentration for a half-maximal effect (EC50) in the data set on HCMV Merlin-GFP (read-out: Merlin-GFP EC50, drug addition 4 d p.i., readout 7 d p.i.) was determined as 5.9 ± 4.9 nM. In addition, the “CDK8 inhibitor sensitivity of SARS-CoV-2 in Caco-2 cells” value in the data set on SARS-CoV-2 d6-YFP (in words) was “lack of CDK8 inhibitor sensitivity”. For the same compound, the CC50 in the data set on Vero cells was greater than 100000 nM; in the data set with MEFs, greater than 100000 nM; with P3HR-1 cells, greater than 100000 nM; with Caco-2 cells, greater than 100000 nM; with 293T-tdTom-Luc cells it was 95300 ± 6600 nM.

Consider `Nc1nc(O)c2ncn(COC(CO)CO)c2n1` [GCV, ganciclovir], for which the EC50 in the data set with EHV-1-GFP was 1300 ± 300 nM; in the data set on EHV-1-GFP (COS-7) it was 200 ± 100 nM; with EHV-1-GFP (Equus caballus, Vero) it was 40 ± 50 nM; with MHV-68-Luc (Murine herpesvirus, MHV-68-Luc, HFF) it was greater than 50000 nM; in the data set with MHV-68-Luc (Murine herpesvirus, MHV-68-Luc, MEF), 9400 ± 6300 nM; in the data set on MHV-68-Luc (Murine herpesvirus, Vero, MHV-68-Luc), 900 ± 700 nM. Besides, the EC50 with HHV-6A-GFP (Human betaherpesvirus 6A, read-out: Antiviral mean EC50 based on plaque assay measurements) stood at 2500 ± 600 nM. For the same compound, the CC50 at 4 d in the data set “in vitro [3]” was greater than 100000 nM. In addition, the CC50 at 7 d in “in vitro [4]” and in “in vitro [6]” was greater than 100000 nM each time. Further, the CC50 in “in vitro [5]” (CC50) is greater than 50000 nM; in “in vitro [5]” (mean CC50), greater than 100000 nM.

By EC50 is commonly meant the concentration that produces a half-maximal response.
